Values of other authors in patent publication US5047425A, “Amine derivatives having cardiovascular activity” (Simes Societa Italiana Medicinali & Sintetici SpA, priority 1987, dated 1991).

Conditions: literature: McKenna 1966; Whitsitt 1967; cited from earlier work

CC(C)NCC(O)COc1cccc2ccccc12 (centres unmarked) [Propranolol]
cardiac output: depresses at the same time the cardiac output
coronary flow: depresses at the same time the cardiac output and the coronary flow
